Tests used:
Bcl-2 WT = Bcl-2 WT (Homo sapiens, UniProt P10415); experiment: Bcl-2 WT inhibition, fluorescence polarization (Flu-BIM tracer) binding assay; details: FP; 20 nM Bcl2, 5 nM Flu-BIM, 1 h incubation; read-out: Bcl-2 w.t. (FP)
RS4; 11Bcl-2-G101V cells = experiment: CellTiter-Glo (CTG) cell viability assay in RS4;11-Bcl-2-G101V cells; assay type: cell-based; details: 72 h, 10% FBS, 3 days
How it was run: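 Luminescent ATP read-out (CellTiter-Glo) after 3-day compound treatment at 37 °C gave viability relative to vehicle, from which IC50 was fitted. Mutant Bcl-2 RS4;11 cells were seeded at 10000 per well and rested 4 h before dosing.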

MV-4-11 cells = experiment: CCK-8 cell viability assay in MV-4-11 cells; assay type: cell-based; details: Homo sapiens, MV4-11, 72 h, 10% FBS, 3 days
How it was run: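 IC50 values come from vehicle-normalized CCK-8 absorbance at 450 nm, read 1–4 h after reagent addition. Before that, MV-4-11 cells seeded at 20000 per well were cultured 3 days at 37 °C with a compound dilution series.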

Chain of Bcl-2 WT (P10415 whole entry): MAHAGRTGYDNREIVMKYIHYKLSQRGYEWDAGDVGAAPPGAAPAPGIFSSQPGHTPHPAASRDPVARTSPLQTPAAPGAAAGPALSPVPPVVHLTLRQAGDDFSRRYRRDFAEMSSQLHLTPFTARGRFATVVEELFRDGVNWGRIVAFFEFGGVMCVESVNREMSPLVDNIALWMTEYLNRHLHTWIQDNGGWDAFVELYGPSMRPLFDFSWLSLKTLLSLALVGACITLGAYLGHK

Row | Compound | IC50 (Bcl-2 WT) [µM] | IC50 (RS4; 11Bcl-2-G101V cells) [µM] | IC50 (MV-4-11 cells) [µM]
1 | CC1(C)CCC(CN2CCN(c3ccc(C(=O)NS(=O)(=O)c4ccc(NC[C@H]5COCCO5)c([N+](=O)[O-])c4)c(Oc4cnc5[nH]ccc5c4)c3)CC2)=C(c2cc(CN3CCN(C4COC4)CC3)cs2)C1 [Example 31, (S)—N-((4-(((1,4-dioxan-2-yl)methyl)amino)-3-nitrophenyl)sulfonyl)-2-((1H-pyrrolo[2,3-b]pyridin-5-yl)oxy)-4-(4-((4,4-dimethyl-2-(4-((4-(oxetan-3-yl)piperazin-1-yl)methyl)thiophen-2-yl)cyclohex-1-en-1-yl)methyl)piperazin-1-yl)benzamide] | 0.026 | 0.88 | 0.147
2 | CC1(C)CCC(CN2CCN(c3ccc(C(=O)NS(=O)(=O)c4ccc(NC[C@H]5COCCO5)c([N+](=O)[O-])c4)c(Oc4cnc5[nH]ccc5c4)c3)CC2)=C(c2cc(CN3CCC(F)(F)CC3)cs2)C1 [Example 32, (S)—N-((4-(((1,4-dioxan-2-yl)methyl)amino)-3-nitrophenyl)sulfonyl)-2-((1H-pyrrolo[2,3-b]pyridin-5-yl)oxy)-4-(4-((2-(4-((4,4-difluoropiperidin-1-yl)methyl)thiophen-2-yl)-4,4-dimethylcyclohex-1-en-1-yl)methyl)piperazin-1-yl)benzamide] | 0.0159 | 0.56 | 0.08
3 | CC1(C)CCC(CN2CCN(c3ccc(C(=O)NS(=O)(=O)c4ccc(NC[C@H]5COCCO5)c([N+](=O)[O-])c4)c(Oc4cnc5[nH]ccc5c4)c3)CC2)=C(c2cc(-c3ccc(F)cc3)cs2)C1 [Example 33, (S)—N-((4-(((1,4-dioxan-2-yl)methyl)amino)-3-nitrophenyl)sulfonyl)-2-((1H-pyrrolo[2,3-b]pyridin-5-yl)oxy)-4-(4-((2-(4-(4-fluorophenyl)thiophen-2-yl)-4,4-dimethylcyclohex-1-en-1-yl)methyl)piperazin-1-yl)benzamide] | 0.0239 | 0.63 | 0.006
4 | CC1(C)CCC(CN2CCN(c3ccc(C(=O)NS(=O)(=O)c4ccc(NCC5CCOCC5)c([N+](=O)[O-])c4)c(Oc4cnc5[nH]ccc5c4)c3)CC2)=C(c2cc(-c3ccccc3)cs2)C1 [Example 34, 2-((1H-pyrrolo[2,3-b]pyridin-5-yl)oxy)-4-(4-((4,4-dimethyl-2-(4-phenylthiophen-2-yl)cyclohex-1-en-1-yl)methyl)piperazin-1-yl)-N-((3-nitro-4-(((tetrahydro-2H-pyran-4-yl)methyl)amino)phenyl)sulfonyl)benzamide] | 0.0411 | 1.46 | 0.018
5 | CC1(C)CCC(CN2CCN(c3ccc(C(=O)NS(=O)(=O)c4ccc(NCC5CCOCC5)c([N+](=O)[O-])c4)c(Oc4cnc5[nH]ccc5c4)c3)CC2)=C(c2ccsc2-c2ccccc2)C1 [Example 35, 2-((1H-pyrrolo[2,3-b]pyridin-5-yl)oxy)-4-(4-((4,4-dimethyl-2-(2-phenylthiophen-3-yl)cyclohex-1-en-1-yl)methyl)piperazin-1-yl)-N-((3-nitro-4-(((tetrahydro-2H-pyran-4-yl)methyl)amino)phenyl)sulfonyl)benzamide] | 0.0404 | 6.16 | 0.799
6 | CC1(C)CCC(CN2CCN(c3ccc(C(=O)NS(=O)(=O)c4ccc(NC[C@H]5CC[C@@](C)(O)CC5)c([N+](=O)[O-])c4)c(Oc4cnc5[nH]ccc5c4)c3)CC2)=C(c2cc(-c3ccc(F)cc3)cs2)C1 [Example 36, 2-((1H-pyrrolo[2,3-b]pyridin-5-yl)oxy)-4-(4-((2-(4-(4-fluorophenyl)thiophen-2-yl)-4,4-dimethylcyclohex-1-en-1-yl)methyl)piperazin-1-yl)-N-((4-((((1s,4s)-4-hydroxy-4-methylcyclohexyl)methyl)amino)-3-nitrophenyl)sulfonyl)benzamide] | 0.0363 | 0.57 | 0.036
7 | CC1(C)CCC(CN2CCN(c3ccc(C(=O)NS(=O)(=O)c4ccc(NC[C@H]5CC[C@](C)(O)CC5)c([N+](=O)[O-])c4)c(Oc4cnc5[nH]ccc5c4)c3)CC2)=C(c2cc(-c3ccc(F)cc3)cs2)C1 [Example 37, 2-((1H-pyrrolo[2,3-b]pyridin-5-yl)oxy)-4-(4-((2-(4-(4-fluorophenyl)thiophen-2-yl)-4,4-dimethylcyclohex-1-en-1-yl)methyl)piperazin-1-yl)-N-((4-((((1r,4r)-4-hydroxy-4-methylcyclohexyl)methyl)amino)-3-nitrophenyl)sulfonyl)benzamide] | 0.0205 | 0.29 | 0.011
8 | CC1(C)CCC(CN2CCN(c3ccc(C(=O)NS(=O)(=O)c4ccc(NC[C@H]5COCCO5)c([N+](=O)[O-])c4)c(Oc4cnc5[nH]ccc5c4)c3)CC2)=C(c2cc(-c3ccc(Cl)cc3)cs2)C1 [Example 38, (S)—N-((4-(((1,4-dioxan-2-yl)methyl)amino)-3-nitrophenyl)sulfonyl)-2-((1H-pyrrolo[2,3-b]pyridin-5-yl)oxy)-4-(4-((2-(4-(4-chlorophenyl)thiophen-2-yl)-4,4-dimethylcyclohex-1-en-1-yl)methyl)piperazin-1-yl)benzamide] | 0.0202 | 1.64 | 0.028
9 | CC(C)c1ccccc1-c1csc(C2=C(CN3CCN(c4ccc(C(=O)NS(=O)(=O)c5ccc(NC[C@H]6COCCO6)c([N+](=O)[O-])c5)c(Oc5cnc6[nH]ccc6c5)c4)CC3)CCC(C)(C)C2)c1 [Example 39, (S)—N-((4-(((1,4-dioxan-2-yl)methyl)amino)-3-nitrophenyl)sulfonyl)-2-((1H-pyrrolo[2,3-b]pyridin-5-yl)oxy)-4-(4-((2-(4-(2-isopropylphenyl)thiophen-2-yl)-4,4-dimethylcyclohex-1-en-1-yl)methyl)piperazin-1-yl)benzamide] | 0.0316 | 2.31 | 0.26
10 | CC1(C)CCC(CN2CCN(c3ccc(C(=O)NS(=O)(=O)c4ccc(NC[C@H]5COCCO5)c([N+](=O)[O-])c4)c(Oc4cnc5[nH]ccc5c4)c3)CC2)=C(c2cc(-c3ccc(C(F)(F)F)cc3)cs2)C1 [Example 40, (S)—N-((4-(((1,4-dioxan-2-yl)methyl)amino)-3-nitrophenyl)sulfonyl)-2-((1H-pyrrolo[2,3-b]pyridin-5-yl)oxy)-4-(4-((4,4-dimethyl-2-(4-(4-(trifluoromethyl)phenyl)thiophen-2-yl)cyclohex-1-en-1-yl)methyl)piperazin-1-yl)benzamide] | 0.0402 | 3.55 | 0.045
11 | CC1(C)CCC(CN2CCN(c3ccc(C(=O)NS(=O)(=O)c4ccc(NC[C@H]5CC[C@](C)(O)CC5)c([N+](=O)[O-])c4)c(Oc4cnc5[nH]ccc5c4)c3)CC2)=C(c2cc(-c3ccc(C(F)(F)F)cc3)cs2)C1 [Example 41, 2-((1H-pyrrolo[2,3-b]pyridin-5-yl)oxy)-4-(4-((4,4-dimethyl-2-(4-(4-(trifluoromethyl)phenyl)thiophen-2-yl)cyclohex-1-en-1-yl)methyl)piperazin-1-yl)-N-((4-((((1r,4r)-4-hydroxy-4-methylcyclohexyl)methyl)amino)-3-nitrophenyl)sulfonyl)benzamide] | 0.044 | 3.23 | 0.05
12 | CC1(C)CCC(CN2CCN(c3ccc(C(=O)NS(=O)(=O)c4ccc(NC[C@H]5COCCO5)c([N+](=O)[O-])c4)c(Oc4cnc5[nH]ccc5c4)c3)CC2)=C(c2cc(-c3ccc(F)cc3F)cs2)C1 [Example 42, (S)—N-((4-(((1,4-dioxan-2-yl)methyl)amino)-3-nitrophenyl)sulfonyl)-2-((1H-pyrrolo[2,3-b]pyridin-5-yl)oxy)-4-(4-((2-(4-(2,4-difluorophenyl)thiophen-2-yl)-4,4-dimethylcyclohex-1-en-1-yl)methyl)piperazin-1-yl)benzamide] | 0.0387 | 0.48 | 0.026
13 | CC1(C)CCC(CN2CCN(c3ccc(C(=O)NS(=O)(=O)c4ccc(NC[C@H]5CC[C@](C)(O)CC5)c([N+](=O)[O-])c4)c(Oc4cnc5[nH]ccc5c4)c3)CC2)=C(c2cc(-c3ccc(F)cc3F)cs2)C1 [Example 43, 2-((1H-pyrrolo[2,3-b]pyridin-5-yl)oxy)-4-(4-((2-(4-(2,4-difluorophenyl)thiophen-2-yl)-4,4-dimethylcyclohex-1-en-1-yl)methyl)piperazin-1-yl)-N-((4-((((1r,4r)-4-hydroxy-4-methylcyclohexyl)methyl)amino)-3-nitrophenyl)sulfonyl)benzamide] | 0.0211 | 0.28 | 0.008
14 | CC1(C)CCC(CN2CCN(c3ccc(C(=O)NS(=O)(=O)c4ccc(NC[C@H]5COCCO5)c([N+](=O)[O-])c4)c(Oc4cnc5[nH]ccc5c4)c3)CC2)=C(c2cc(-c3ccc(Cl)cc3F)cs2)C1 [Example 44, (S)—N-((4-(((1,4-dioxan-2-yl)methyl)amino)-3-nitrophenyl)sulfonyl)-2-((1H-pyrrolo[2,3-b]pyridin-5-yl)oxy)-4-(4-((2-(4-(4-chloro-2-fluorophenyl)thiophen-2-yl)-4,4-dimethylcyclohex-1-en-1-yl)methyl)piperazin-1-yl)benzamide] | 0.031 | 0.83 | 0.031
15 | CC1(C)CCC(CN2CCN(c3ccc(C(=O)NS(=O)(=O)c4ccc(NC[C@H]5CC[C@](C)(O)CC5)c([N+](=O)[O-])c4)c(Oc4cnc5[nH]ccc5c4)c3)CC2)=C(c2cc(-c3cc(F)c(F)c(F)c3)cs2)C1 [Example 45, 2-((1H-pyrrolo[2,3-b]pyridin-5-yl)oxy)-4-(4-((4,4-dimethyl-2-(4-(3,4,5-trifluorophenyl)thiophen-2-yl)cyclohex-1-en-1-yl)methyl)piperazin-1-yl)-N-((4-((((1r,4r)-4-hydroxy-4-methylcyclohexyl)methyl)amino)-3-nitrophenyl)sulfonyl)benzamide] | 0.0338 | 1.68 | 0.057
